{"source": "paper PMC5054363", "about": "(Scientific Reports, 2016)", "key": {"both eEF1A isoforms": {"test_system": "both eEF1A isoforms", "details": "cited from earlier work", "from_the_text": "(§1) Until now, very few chemical entities have been identified as modulators of eEF1A2. […] Other authors also reported the discovery of several flavonoids as well as phenanthridones (e.g ..."}, "protein synthesis": {"test_system": "protein synthesis", "details": "cited from earlier work"}, "eEF1A-ribosome complex": {"molecular_target": "eEF1A-ribosome complex", "details": "binding to the eEF1A-ribosome complex; cited from earlier work", "from_the_text": "as §1"}, "[1]": {"molecular_target": "EF1A isolated from rabbit reticulocytes", "details": "cited from earlier work", "from_the_text": "as §1"}, "[2]": {"molecular_target": "eEF1A1 purified from rabbit liver (Oryctolagus cuniculus, UniProt P68105)", "sequence (P68105 whole entry)": "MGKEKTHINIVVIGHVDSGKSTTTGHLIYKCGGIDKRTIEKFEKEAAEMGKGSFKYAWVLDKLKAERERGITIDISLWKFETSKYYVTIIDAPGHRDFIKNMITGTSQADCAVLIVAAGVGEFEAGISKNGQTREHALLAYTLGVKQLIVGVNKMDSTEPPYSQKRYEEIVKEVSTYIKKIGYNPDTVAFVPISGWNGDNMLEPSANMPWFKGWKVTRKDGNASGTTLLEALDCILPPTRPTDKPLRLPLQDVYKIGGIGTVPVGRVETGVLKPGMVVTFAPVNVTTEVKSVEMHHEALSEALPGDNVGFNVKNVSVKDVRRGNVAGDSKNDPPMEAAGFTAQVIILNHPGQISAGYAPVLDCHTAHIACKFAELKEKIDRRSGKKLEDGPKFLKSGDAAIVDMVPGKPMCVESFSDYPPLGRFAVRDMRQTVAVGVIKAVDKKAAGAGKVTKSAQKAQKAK", "details": "saturation binding, [14C]-plitidepsin, 1 h, room temperature, triplicate, Swillens fit (Supplementary Figure 4)", "description": "All samples in binding assays were tested in triplicate. […] After 1 h incubation at room temperature, 450 μL were withdrawn, filtered through GF/C filters (Millipore, Bedford, CA) and washed three times with the same buffer used for the incubation. Filters were then removed, dried and their radioactivity was finally counted as a measurement of total (specific and non-specific) bound drug. […] Scintillation counting was transformed into concentration values considering the specific activity of the radioligand and the sample volume. The concentration of bound radioligand was related to the total amount of radioligand in the sample using the expression derived by Swillens[12] to account for ligand depletion when the concentration of protein was similar to that of radioligand:\nwas purified from rabbit liver as described in ( 48) . Protein and radioligand wer e\nincubated for 1 h at room temperature and samples were processed as described in the"}, "[3]": {"test_system": "subcellular and chromatographic fractions of K-562 cell lysate", "assay": "Binding of [14C]-plitidepsin to K-562 lysate fractions", "details": "500 nM [14C]-plitidepsin with or without 10 μM unlabeled plitidepsin, 1 h, room temperature, subcellular fractions", "experimental": "Figure 4 Identification of the plitidepsin-binding protein in a K-562 cells lysate. […] In the horizontal axis “P” and “S” mean “pellet” and “supernatant”, respectively, with the figure aside denoting the relative centrifugal force (in thousands of g) used to obtain such fraction. Data (in dpm per mg of protein) represent the mean of three independent samples with error bars showing S.D. * means p < 0.05. (C) Anion-exchange chromatography on DEAE, flow rate 5 mL/min. (D) Cation-exchange chromatography on SP, flow rate 2.5 mL/min. (E) Size exclusion chromatography on Superdex 200, flow rate 4 mL/min. Representative fractions (4-mL) from each portion of the eluates were analyzed for their binding to [^14C]-plitidepsin in the presence (grey bars, non-specific binding) or absence (black bars, total binding) of a 20-fold excess of unlabeled drug. Only fractions showing significant specific binding to the radioligand were pooled and progressed to the next chromatographic step. In all cases absorbance is expressed in mAU and conductivity in mS/cm.\nThe rest of the peptides detected in this material corresponded to fragments whose sequences are common to both isoforms, thus discarding the presence of any other protein.\nAfter 1 h incubation at room temperature 400 μL of each tube were withdrawn and processed as described above."}}, "note": "*1 amine or outer side, *2 acyl side, *3 side chain or, on linkers, in order; H or OH if unused. Where a SMILES comes first, the peptide text is derived from it. Bridges are numbered along the chain shown (N, C = ends). [ ]: non-standard residue; d: D form. The star is where a group is joined. X1 = CC[C@H](C)[C@@H](N[*:1])[C@@H](O)CC(=O)O[C@H](C(=O)[C@H](C)C(=O)[*:2])C(C)C; NMeY = CN[C@@H](Cc1ccc(O)cc1)C(=O)O; dNMeL = CN[C@H](CC(C)C)C(=O)O; Pyruvoyl = CC(=O)C(=O)*"}
{"compound": "O=C1N[C@H]2[C@H](O)[C@H](O)[C@@H](O)[C@H](O)[C@@H]2c2cc3c(c(O)c21)OCO3", "note": "[pancratistatine]", "values": [{"measurement": "binding to eEF1A isoforms", "setting": "both eEF1A isoforms", "result": "selectively bind to both eEF1A isoforms"}]}
{"compound": "O=C1N[C@@H]2C(=C[C@H](O)[C@@H](O)[C@H]2O)c2cc3c(c(O)c21)OCO3", "note": "[narciclasine]", "values": [{"measurement": "binding to eEF1A isoforms", "setting": "both eEF1A isoforms", "result": "selectively bind to both eEF1A isoforms"}]}
{"compound": "didemnin B", "values": [{"measurement": "protein synthesis inhibition", "setting": "protein synthesis", "result": "only at μM concentrations"}, {"measurement": "Kd", "setting": "eEF1A-ribosome complex", "result": 4, "unit": "µM"}, {"measurement": "Kd", "setting": "[1]; binding to EF1A", "result": 200, "unit": "µM"}, {"measurement": "interaction with eEF1A", "setting": "[1]; isoform not specified", "result": "interact with eEF1A"}]}
{"compound": "CC[C@H](C)[C@H]1NC(=O)[C@@H](NC(=O)[C@@H](CC(C)C)N(C)C(=O)[C@@H]2CCCN2C(=O)C(C)=O)[C@@H](C)OC(=O)[C@H](Cc2ccc(OC)cc2)N(C)C(=O)[C@@H]2CCCN2C(=O)[C@H](CC(C)C)NC(=O)[C@@H](C)C(=O)[C@H](C(C)C)OC(=O)C[C@@H]1O", "note": "[[^14C]-plitidepsin] (Pyruvoyl-P[dNMeL]T[X1]LP[NMeY](Me); ester 3-C (inferred))", "values": [{"measurement": "Kd", "setting": "[2]", "result": "0.183 ± 0.032", "unit": "µM"}, {"measurement": "binding to pellets", "setting": "[3]; pellets", "result": "non-specifically"}, {"measurement": "binding to soluble fractions", "setting": "[3]; soluble", "result": "retained by the soluble fractions"}]}
